Read-outs that look alike come from different tables or passages of the source.
Legend:
[1] = system: patients with moderate to severe chronic low back pain; assay: Dose analysis (average titration dose, fixed dose, study drug dose of opioid agonist), low back pain study
[2] = system: patients with moderate to severe chronic pain due to osteoarthritis of the hip or knee
[3] = system: patients with moderate to severe chronic pain due to osteoarthritis of the hip or knee; assay: Quality of analgesia, 3-week osteoarthritis study; type: in vivo, human
Procedure: Quality of Analgesia was assessed weekly at clinic visits. The patient was prompted with the question, “How would you rate the quality of your pain relief at this time?”, and responses were selected from poor, fair, good, very good, and excellent.
The global assessment, quality of analgesia, and pain control, recorded at the end of each week, were summarized in terms of category proportions.
For secondary analysis of data, pain intensity changes, SF-12, and WOMAC were analyzed with the ANOVA methods as described above. Within treatment arms, weeks were compared in pairwise fashion using paired-sample methods. The global assessments, quality of analgesia ratings, and pain control was analyzed at each week, globally and in pairwise fashion, using the Cocharan-Mantel-Haenszel row mean scores (CMH-RMS) test, using equally spaced scores. An “observed data” analysis, without any data imputation, was conducted on pain intensity changes, global assessments, quality of analgesia ratings, pain control, SF-12, and WOMAC using the same analysis methods described previously.

[4] = system: patients with moderate to severe chronic low back pain; assay: Opioid Associated Adverse Event Score (OAAES), low back pain study; type: in vivo, human; conditions: through the treatment period; ITT population
From the text: The OAAES is a derived measure using the maximum severity for each of six opioid-associated adverse events (constipation, nausea, vomiting, dizziness, somnolence, and pruritis). For each patient, a maximum severity score (mild=1, moderate=2, and severe=3) was summed for each of the six treatment emergent opioid-associated adverse events that were present. […]

[5] = mg of opioid agonist, ITT population
[6] = 3-week study, intent to treat population
[7] = Week 1, Days 1-3: 10 mg OXY/d, Days 4-8: 20 mg OXY/d
[8] = ITT (N = 102 per active group), LOCF

COc1ccc2c3c1O[C@H]1C(=O)CC[C@@]4(O)[C@@H](C2)N(C)CC[C@]314 [OXY QID, oxycodone]
Mean study drug dose of oxycodone ([1]; entire study period (titration and fixed-dose), ITT): 39.0 mg | Mean fixed dose of oxycodone ([1]; fixed-dose period, ITT): 57.2 mg | AVERAGE FIXED DOSE, MAXIMUM [1, 5]: 80.0 mg | AVERAGE FIXED DOSE, MEAN (SD) [1, 5]: 57.2 (23.35) MG | AVERAGE FIXED DOSE, MEDIAN [1, 5]: 60.0 mg | AVERAGE FIXED DOSE, MINIMUM [1, 5]: 10.0 mg | AVERAGE STUDY DRUG DOSE, MAXIMUM [1, 5]: 67.8 mg | AVERAGE STUDY DRUG DOSE, MEAN (SD) [1, 5]: 39.0 (19.87) MG | AVERAGE STUDY DRUG DOSE, MEDIAN [1, 5]: 35.6 mg | AVERAGE STUDY DRUG DOSE, MINIMUM [1, 5]: 10.0 mg | AVERAGE TITRATION DOSE, MAXIMUM [1, 5]: 42.3 mg | AVERAGE TITRATION DOSE, MEAN (SD) [1, 5]: 24.2 (8.22) MG | AVERAGE TITRATION DOSE, MEDIAN [1, 5]: 25.9 mg | AVERAGE TITRATION DOSE, MINIMUM [1, 5]: 0.0 mg | Opioid drug dose required to achieve comparable pain relief ([1]; per day, p<0.05): approximately 39 mg | Mean titration dose of oxycodone ([1]; titration period, ITT): 24.2 mg | Discontinuation of treatment because of adverse event: Any adverse event, % of patients [2, 6]: 28.4% | Discontinuation of treatment because of adverse event: Any adverse event, number of patients [2, 6]: 29 | Discontinuation of treatment because of adverse event: Constipation, % of patients [2, 6]: 1.0% | Discontinuation of treatment because of adverse event: Constipation, number of patients [2, 6]: 1 | Discontinuation of treatment because of adverse event: Diarrhea, % of patients [2, 6]: 0.0% | Discontinuation of treatment because of adverse event: Diarrhea, number of patients [2, 6]: 0 | Discontinuation of treatment because of adverse event: Dizziness, % of patients [2, 6]: 1.0% | Discontinuation of treatment because of adverse event: Dizziness, number of patients [2, 6]: 1 | Discontinuation of treatment because of adverse event: Euphoric mood, % of patients [2, 6]: 0.0% | Discontinuation of treatment because of adverse event: Euphoric mood, number of patients [2, 6]: 0 | Discontinuation of treatment because of adverse event: Eye disorders, % of patients [2, 6]: 0.0% | Discontinuation of treatment because of adverse event: Eye disorders, number of patients [2, 6]: 0 | Discontinuation of treatment because of adverse event: Gastrointestinal disorders, % of patients [2, 6]: 12.7% | Discontinuation of treatment because of adverse event: Gastrointestinal disorders, number of patients [2, 6]: 13 | Discontinuation of treatment because of adverse event: General disorders and administration site conditions, % of patients [2, 6]: 2.0% | Discontinuation of treatment because of adverse event: General disorders and administration site conditions, number of patients [2, 6]: 2 | Discontinuation of treatment because of adverse event: Headache, % of patients [2, 6]: 2.0% | Discontinuation of treatment because of adverse event: Headache, number of patients [2, 6]: 2 | Discontinuation of treatment because of adverse event: Lethargy, % of patients [2, 6]: 0.0% | Discontinuation of treatment because of adverse event: Lethargy, number of patients [2, 6]: 0 | Discontinuation of treatment because of adverse event: Nausea, % of patients [2, 6]: 6.9% | Discontinuation of treatment because of adverse event: Nausea, number of patients [2, 6]: 7 | Discontinuation of treatment because of adverse event: Nervous system disorders, % of patients [2, 6]: 7.8% | Discontinuation of treatment because of adverse event: Nervous system disorders, number of patients [2, 6]: 8 | Discontinuation of treatment because of adverse event: Pruritus, % of patients [2, 6]: 1.0% | Discontinuation of treatment because of adverse event: Pruritus, number of patients [2, 6]: 1 | Discontinuation of treatment because of adverse event: Psychiatric disorders, % of patients [2, 6]: 1.0% | Discontinuation of treatment because of adverse event: Psychiatric disorders, number of patients [2, 6]: 1 | Discontinuation of treatment because of adverse event: Sedation, % of patients [2, 6]: 2.0% | Discontinuation of treatment because of adverse event: Sedation, number of patients [2, 6]: 2 | Discontinuation of treatment because of adverse event: Skin and subcutaneous tissue disorders, % of patients [2, 6]: 2.9% | Discontinuation of treatment because of adverse event: Skin and subcutaneous tissue disorders, number of patients [2, 6]: 3 | Discontinuation of treatment because of adverse event: Sommolence, % of patients [2, 6]: 2.0% | Discontinuation of treatment because of adverse event: Sommolence, number of patients [2, 6]: 2 | Discontinuation of treatment because of adverse event: Upper abdominal pain, % of patients [2, 6]: 0.0% | Discontinuation of treatment because of adverse event: Upper abdominal pain, number of patients [2, 6]: 0 | Discontinuation of treatment because of adverse event: Vomiting, % of patients [2, 6]: 3.9% | Discontinuation of treatment because of adverse event: Vomiting, number of patients [2, 6]: 4 | Adverse event Constipation, % of patients [2, 7]: 12.7% | Adverse event Constipation, number of patients [2, 7]: 13 | Adverse event Dizziness, % of patients [2, 7]: 16.7% | Adverse event Dizziness, number of patients [2, 7]: 17 | Adverse event Dry Mouth, % of patients [2, 7]: 5.9% | Adverse event Dry Mouth, number of patients [2, 7]: 6 | Adverse event Fatigue, % of patients [2, 7]: 2.9% | Adverse event Fatigue, number of patients [2, 7]: 3 | Adverse event Headache, % of patients [2, 7]: 16.7% | Adverse event Headache, number of patients [2, 7]: 17 | Adverse event Nausea, % of patients [2, 7]: 23.5% | Adverse event Nausea, number of patients [2, 7]: 24 | Adverse event Pruritus, % of patients [2, 7]: 7.8% | Adverse event Pruritus, number of patients [2, 7]: 8 | Adverse event Sommolence, % of patients [2, 7]: 15.7% | Adverse event Sommolence, number of patients [2, 7]: 16 | Adverse event Vomiting, % of patients [2, 7]: 3.9% | Adverse event Vomiting, number of patients [2, 7]: 4 | Adverse event Constipation, % of patients ([2]; Week 2, 30 mg OXY/d): 7.1% | Adverse event Constipation, number of patients ([2]; Week 2, 30 mg OXY/d): 6 | Adverse event Dizziness, % of patients ([2]; Week 2, 30 mg OXY/d): 11.8% | Adverse event Dizziness, number of patients ([2]; Week 2, 30 mg OXY/d): 10 | Adverse event Dry Mouth, % of patients ([2]; Week 2, 30 mg OXY/d): 4.7% | Adverse event Dry Mouth, number of patients ([2]; Week 2, 30 mg OXY/d): 4 | Adverse event Fatigue, % of patients ([2]; Week 2, 30 mg OXY/d): 0.0% | Adverse event Fatigue, number of patients ([2]; Week 2, 30 mg OXY/d): 0 | Adverse event Headache, % of patients ([2]; Week 2, 30 mg OXY/d): 3.5% | Adverse event Headache, number of patients ([2]; Week 2, 30 mg OXY/d): 3 | Adverse event Nausea, % of patients ([2]; Week 2, 30 mg OXY/d): 14.1% | Adverse event Nausea, number of patients ([2]; Week 2, 30 mg OXY/d): 12 | Adverse event Pruritus, % of patients ([2]; Week 2, 30 mg OXY/d): 5.9% | Adverse event Pruritus, number of patients ([2]; Week 2, 30 mg OXY/d): 5 | Adverse event Sommolence, % of patients ([2]; Week 2, 30 mg OXY/d): 7.1% | Adverse event Sommolence, number of patients ([2]; Week 2, 30 mg OXY/d): 6 | Adverse event Vomiting, % of patients ([2]; Week 2, 30 mg OXY/d): 3.5% | Adverse event Vomiting, number of patients ([2]; Week 2, 30 mg OXY/d): 3 | Adverse event Constipation, % of patients ([2]; Week 3, 40 mg OXY/d): 2.7% | Adverse event Constipation, number of patients ([2]; Week 3, 40 mg OXY/d): 2 | Adverse event Dizziness, % of patients ([2]; Week 3, 40 mg OXY/d): 5.3% | Adverse event Dizziness, number of patients ([2]; Week 3, 40 mg OXY/d): 4 | Adverse event Dry Mouth, % of patients ([2]; Week 3, 40 mg OXY/d): 0.0% | Adverse event Dry Mouth, number of patients ([2]; Week 3, 40 mg OXY/d): 0 | Adverse event Headache, % of patients ([2]; Week 3, 40 mg OXY/d): 8.0% | Adverse event Headache, number of patients ([2]; Week 3, 40 mg OXY/d): 6 | Adverse event Nausea, number of patients ([2]; Week 3, 40 mg OXY/d): 8 | Adverse event Pruritus, % of patients ([2]; Week 3, 40 mg OXY/d): 4.0% | Adverse event Pruritus, number of patients ([2]; Week 3, 40 mg OXY/d): 3 | Adverse event Sommolence, % of patients ([2]; Week 3, 40 mg OXY/d): 2.7% | Adverse event Sommolence, number of patients ([2]; Week 3, 40 mg OXY/d): 2 | Adverse event Vomiting, % of patients ([2]; Week 3, 40 mg OXY/d): 12.0% | Adverse event Vomiting, number of patients ([2]; Week 3, 40 mg OXY/d): 9 | Patients who discontinued treatment because of adverse events (number) ([2]; of the 360 patients who received study drug, 3-week treatment): 29 | Quality of analgesia Week 1: EXCELLENT (4), number (%) of patients [3, 8]: 3 (2.9%) | Quality of analgesia Week 1: FAIR (1), number (%) of patients [3, 8]: 31 (30.4%) | Quality of analgesia Week 1: GOOD (2), number (%) of patients [3, 8]: 18 (37.3%) | Quality of analgesia Week 1: POOR (0), number (%) of patients [3, 8]: 18 (17.6%) | Quality of analgesia Week 1: VERY GOOD (3), number (%) of patients [3, 8]: 8 (7.8%) | Quality of analgesia Week 2: EXCELLENT (4), number (%) of patients [3, 8]: 4 (3.9%) | Quality of analgesia Week 2: FAIR (1), number (%) of patients [3, 8]: 29 (28.4%) | Quality of analgesia Week 2: GOOD (2), number (%) of patients [3, 8]: 30 (29.4%) | Quality of analgesia Week 2: POOR (0), number (%) of patients [3, 8]: 19 (18.6%) | Quality of analgesia Week 2: VERY GOOD (3), number (%) of patients [3, 8]: 16 (15.7%) | Quality of analgesia Week 3: EXCELLENT (4), number (%) of patients [3, 8]: 5 (4.9%) | Quality of analgesia Week 3: FAIR (1), number (%) of patients [3, 8]: 23 (22.5%) | Quality of analgesia Week 3: GOOD (2), number (%) of patients [3, 8]: 32 (31.4%) | Quality of analgesia Week 3: POOR (0), number (%) of patients [3, 8]: 23 (22.5%) | Quality of analgesia Week 3: VERY GOOD (3), number (%) of patients [3, 8]: 15 (14.7%) | Patients reporting a quality of analgesia assessment of very good or excellent at Week 3 ([3]; Week 3): 19.6% | Opioid Associated Adverse Event Score (OAAES), maximum [4]: 16.0 | Opioid Associated Adverse Event Score (OAAES), mean (SD) [4]: 5.6 (3.95) | Opioid Associated Adverse Event Score (OAAES), median [4]: 5.0 | Opioid Associated Adverse Event Score (OAAES), minimum [4]: 0.0
